Reference: ChEMBL document CHEMBL4364251, “Design, synthesis and biological evaluation of new quinoline derivatives as potential antitumor agents” (Eur J Med Chem, 2019)
Calls of active or inactive are those of the source. The calls are words filed in the database; no cut-off is given here.

What was measured:
HCT-116 [1] = test: Induction of apoptosis in human HCT116 cells assessed as late apoptotic cells at 8 uM incubated for 24 hrs in presence of pan-caspase inhibitor z-VAD-FMK by annexin-V-FITC/PI staining based FACS analysis (reference value: 6.04%); type: functional
HCT-116 [2] = test: Induction of apoptosis in human HCT116 cells assessed as increase in cleaved PARP protein expression level at 4 to 8 uM incubated for 24 hrs by Western blot analysis; type: functional, cell-based
HCT-116 [3] = test: Antiproliferative activity against human HCT116 cells incubated for 48 hrs by MTT assay; type: functional, cell-based; details: HCT-116, 48 h
HCT-116 [4] = test: Induction of morphological changes in human HCT116 cells assessed as reduction in cell number at 4 to 10 uM incubated for 24 hrs by phase-contrast microscopic method; type: functional, cell-based
HCT-116 [5] = test: Induction of autophagy in human HCT116 cells assessed as decrease in ATG5 protein expression level incubated for 24 hrs by Western blot analysis; type: functional, cell-based
HCT-116 [6] = test: Induction of autophagy in human HCT116 cells assessed as increase in LC3B-2 protein expression level incubated for 24 hrs by Western blot analysis; type: functional, cell-based
HCT-116 [7] = test: Inhibition of colony formation in human HCT116 cells incubated for 24 hrs followed by compound washout and subsequent incubation for 10 to 14 days by crystal violet staining based assay; type: functional, cell-based
A549 = test: Antiproliferative activity against human A549 cells incubated for 48 hrs by MTT assay; type: functional, cell-based; details: A549, 48 h
RKO [8] = test: Growth inhibition of human RKO cells at 1 uM by CCK-8 assay; type: functional, cell-based; details: TDE = time-dependent effect
HCT-116 [9] = test: Antiproliferative activity against human HCT116 cells expressing ATG5(-/-) assessed as cell viability incubated for 24 hrs by CCK8 assay; type: functional, cell-based
HCT-116 [10] = test: Induction of morphological changes in human HCT116 cells assessed as cell shrinkage at 4 to 10 uM incubated for 24 hrs by phase-contrast microscopic method; type: functional, cell-based
HCT-116 [11] = test: Growth inhibition of human HCT116 cells at 1 uM by CCK-8 assay; type: functional, cell-based; details: TDE = time-dependent effect
HCT-116 [12] = test: Induction of apoptosis in human HCT116 cells deficient in ATG7 assessed as viable cells at 8 uM incubated for 24 hrs by annexin-V-FITC/PI staining based FACS analysis (reference value: 85.27%); type: functional; details: HCT-116, 24 h, read-out: Activity
HCT-116 [13] = test: Induction of apoptosis in human HCT116 cells deficient in ATG7 assessed as necrotic cells at 8 uM incubated for 24 hrs by annexin-V-FITC/PI staining based FACS analysis (reference value: 5.58%); type: functional
HCT-116 [14] = test: Induction of apoptosis in human HCT116 cells assessed as early apoptotic cells at 8 uM incubated for 24 hrs by annexin-V-FITC/PI staining based FACS analysis (reference value: 1.77 to 3.38%); type: functional
HeLa = test: Antiproliferative activity against human HeLa cells incubated for 48 hrs by MTT assay; type: functional, cell-based
A2780 = test: Antiproliferative activity against human A2780 cells incubated for 48 hrs by MTT assay; type: functional, cell-based; details: A2780, 48 h
HCT-116 [15] = test: Induction of apoptosis in human HCT116 cells assessed as early apoptotic cells at 4 uM incubated for 24 hrs in presence of pan-caspase inhibitor z-VAD-FMK by annexin-V-FITC/PI staining based FACS analysis (reference value: 8.08%); type: functional
HCT-116 [16] = test: Induction of apoptosis in human HCT116 cells assessed as late apoptotic cells at 4 uM incubated for 24 hrs by annexin-V-FITC/PI staining based FACS analysis (reference value: 1.55 to 1.56%); type: functional
HCT-116 [17] = test: Induction of apoptosis in human HCT116 cells assessed as viable cells at 4 uM incubated for 24 hrs by annexin-V-FITC/PI staining based FACS analysis (reference value: 94.35 to 94.43%); type: functional; details: HCT-116, 24 h, read-out: Activity
HCT-116 [18] = test: Induction of apoptosis in human HCT116 cells assessed as necrotic cells at 4 uM incubated for 24 hrs in presence of pan-caspase inhibitor z-VAD-FMK by annexin-V-FITC/PI staining based FACS analysis (reference value: 0.6%); type: functional
HCT-116 [19] = test: Induction of autophagy in human HCT116 cells assessed as decrease in ATG7 protein expression level incubated for 24 hrs by Western blot analysis; type: functional, cell-based
HCT-116 [20] = test: Induction of apoptosis in human HCT116 cells deficient in ATG7 assessed as early apoptotic cells at 8 uM incubated for 24 hrs by annexin-V-FITC/PI staining based FACS analysis (reference value: 2.32%); type: functional
HCT-116 [21] = test: Induction of autophagy in human HCT116 cells assessed as increase in LC3B-2 protein expression level at 6 uM by Western blot analysis; type: functional, cell-based; details: TDE = time-dependent effect
HCT-116 [22] = test: Induction of apoptosis in human HCT116 cells assessed as necrotic cells at 4 uM incubated for 24 hrs by annexin-V-FITC/PI staining based FACS analysis (reference value: 0.71 to 2.26%); type: functional
HCT-116 [23] = test: Induction of apoptosis in human HCT116 cells assessed as increase in cleaved PARP protein expression level at 4 to 8 uM incubated for 24 hrs in presence of pan-caspase inhibitor z-VAD-FMK by Western blot analysis; type: functional, cell-based
HCT-116 [24] = test: Induction of apoptosis in human HCT116 cells assessed as late apoptotic cells at 8 uM incubated for 24 hrs by annexin-V-FITC/PI staining based FACS analysis (reference value: 1.55 to 1.56%); type: functional
HCT-116 [25] = test: Induction of apoptosis in human HCT116 cells assessed as necrotic cells at 8 uM incubated for 24 hrs in presence of pan-caspase inhibitor z-VAD-FMK by annexin-V-FITC/PI staining based FACS analysis (reference value: 0.6%); type: functional
RKO [26] = test: Inhibition of colony formation in human RKO cells incubated for 24 hrs followed by compound washout and subsequent incubation for 10 to 14 days by crystal violet staining based assay; type: functional, cell-based
HCT-116 [27] = test: Induction of apoptosis in human HCT116 cells assessed as early apoptotic cells incubated for 24 hrs by annexin-V-FITC/PI staining based FACS analysis; type: functional, cell-based
NCI-H1650 = test: Antiproliferative activity against human NCI-H1650 cells incubated for 48 hrs by MTT assay; type: functional, cell-based; details: NCI-H1650, 48 h
HCT-116 [28] = test: Induction of apoptosis in human HCT116 cells assessed as viable cells at 8 uM incubated for 24 hrs in presence of pan-caspase inhibitor z-VAD-FMK by annexin-V-FITC/PI staining based FACS analysis (reference value: 85.28%); type: functional; details: HCT-116, 24 h, read-out: Activity
HCT-116 [29] = test: Induction of apoptosis in human HCT116 cells assessed as late apoptotic cells incubated for 24 hrs by annexin-V-FITC/PI staining based FACS analysis; type: functional, cell-based
HCT-116 [30] = test: Induction of autophagy in human HCT116 cells expressed with LC3B-EGFP-mCheery assessed as LC3 assembly on membrane of autophagosome incubated for 24 hrs by DAPI staining based confocal microscopic method; type: functional, cell-based
HCT-116 [31] = test: Induction of apoptosis in human HCT116 cells deficient in ATG7 assessed as late apoptotic cells at 8 uM incubated for 24 hrs by annexin-V-FITC/PI staining based FACS analysis (Rvb =6.56%); type: functional

## COc1cccc(Nc2ccnc3cc(OCCCc4ccccc4)ccc23)c1
HCT-116 [1]
  Activity: 16%
HCT-116 [2]
  Activity: Active
HCT-116 [3]
  IC50: 2.56 µM
HCT-116 [4]
  Activity: Active
HCT-116 [5]
  Activity: Dose-dependent effect
HCT-116 [6]
  Activity: Dose-dependent effect
HCT-116 [7]
  inhibition: Dose-dependent effect
A549
  IC50: 8.22 µM
RKO [8]
  growth inhibition (GI): Tde
HCT-116 [9]
  Activity: inactive
HCT-116 [10]
  Activity: Active
HCT-116 [11]
  growth inhibition (GI): Tde
HCT-116 [12]
  viability at 8 µM: 76.7%
HCT-116 [13]
  Activity: 7.04%
HCT-116 [14]
  Activity: 17.9 - 18.35%
HeLa
  IC50: 2.71 µM
A2780
  IC50: 3.46 µM
HCT-116 [15]
  Activity: 15.45%
HCT-116 [16]
  Activity: 11.64%
HCT-116 [17]
  viability at 4 µM: 75.4%
HCT-116 [18]
  Activity: 1.3%
HCT-116 [19]
  Activity: Dose-dependent effect
HCT-116 [20]
  Activity: 5.26%
HCT-116 [21]
  Activity: Tde
HCT-116 [22]
  Activity: 0.95%
HCT-116 [23]
  Activity: Active
HCT-116 [24]
  Activity: 15.38 - 17.66%
HCT-116 [25]
  Activity: 1.71%
RKO [26]
  inhibition: Dose-dependent effect
HCT-116 [27]
  Activity: Dose-dependent effect
NCI-H1650
  IC50: 6.3 µM
HCT-116 [28]
  viability at 8 µM: 62.9%
HCT-116 [29]
  Activity: Dose-dependent effect
HCT-116 [30]
  Activity: Dose-dependent effect
HCT-116 [31]
  Activity: 11.04%
